The record followed here is patent US20180193659A1, “PHOTODYNAMIC THERAPY LIGHT IRRADIATING DEVICE AND LIGHT IRRADIATING METHOD” (Public University Corporation Nagoya City University, priority 2015, published 2018).

Each structure is given as a SMILES string. Like-named read-outs stand apart in the source and are kept apart here.

The test system of test [1] is HaCaT cells (human skin keratinocyte cell line). The test can be described thus: Experimental Example 2: cell survival rate of 5-ALA-treated HaCaT cells after 635 nm irradiation under pulse width modulation. The format is cell-based. The following applies: 1 mM 5-ALA, 12 J/cm^2, 125 kHz PWM, off time not more than 4 μs. How it is done: The irradiation was performed using a pulse width modulation control power supply (PWM power supply) with a frequency of 125 kHz capable of adjusting light using pulse width modulation at 256 modes as shown in FIG. 12. Specifically, in the condition (1), light irradiation was performed using pulse width modulation control in which the off time (t(off)) in pulse width modulation was 5.6 μs. In the condition (2), light irradiation was performed using pulse width modulation control in which the off time (t(off)) in pulse width modulation was 5.3 μs. In the condition (3), light irradiation was performed using pulse width modulation control in which the off time (t(off)) in pulse width modulation was 4.8 μs. In the condition (4), light irradiation was performed using pulse width modulation control in which the off time (t(off)) in pulse width modulation was 4.0 μs. In the condition (5), light irradiation was performed using pulse width modulation control in which the off time (t(off)) in pulse width modulation was 2.7 μs. In all the conditions (1) to (5), the pulse period (T) was 8 μs. In the condition (6), light irradiation in which the off time (t(off)) in pulse width modulation was 0 μs, that is, light irradiation that was continuous irradiation under the same condition as that in amplitude variable control was performed.

Test [2] has the same test system. The following applies: 1 mM 5-ALA; for PDT effect (1 - cell survival rate): 0.4 J/cm^2.
Description: After 4 hours, the plurality of plates except for one plate were each subjected to five kinds of single-wavelength irradiation and four kinds of multiple-wavelength irradiation (specifically, two-wavelength irradiation) at respective amounts of irradiation of 0.2 J/cm^2, 0.4 J/cm^2, 0.6 J/cm^2, 0.8 J/cm^2, 1.0 J/cm^2, and 1.2 J/cm^2. Specifically, in the five kinds of single-wavelength irradiation, irradiation with each of light having a wavelength of 405 nm, light having a wavelength of 505 nm, light having a wavelength of 545 nm, light having a wavelength of 570 nm, and light having a wavelength of 635 nm was performed. The four kinds of multiple-wavelength irradiation with light in which the light having the wavelength of 405 nm and the light having the wavelength of 505 nm were combined, light in which the light having the wavelength of 405 nm and the light having the wavelength of 545 nm were combined, light in which the light having the wavelength of 405 nm and the light having the wavelength of 570 nm were combined, and light in which the light having the wavelength of 405 nm and the light having the wavelength of 635 nm were combined were performed. In the single-wavelength irradiation and the multiple-wavelength irradiation, as a light source of the light having the wavelength of 405 nm, an LED element in which the energy of light from the light source was 11 mW/cm^2 (irradiation distance: 100 mm) was used. […]
Subsequently, in the plurality of plates that had been irradiated with light and the plate that had not been irradiated with light, cultivation was performed over 18 hours. The cell survival rate was measured by an MTT assay using an XTT cell proliferation assay kit.
On the basis of the results of cell survival rate at an amount of irradiation of 0.4 J/cm^2, a therapeutic effect by a photodynamic therapy (hereinafter also referred to as “PDT effect”) was calculated by the following expression (1).
Herein, the cell survival rate reference value is a value calculated by the following expression (2). […]

Take `NCC(=O)CCC(=O)O` [5-ALA, δ-aminolevulinic acid]: the “PDT effect under pulse width modulation versus continuous irradiation” value in test [1] is listed as “the same as that in continuous irradiation”. In addition, the “PDT effect, single-wavelength irradiation” value in test [2] (4 h, 405 nm compared with 505, 545, 570 and 635 nm) is recorded as “most excellent PDT effect”. For the same molecule, the “PDT effect (1 - cell survival rate)” value in test [2] (405 nm + 505 nm) is given as “excellent PDT effect is obtained”; in test [2] (405 nm + any of 545, 570, 635 nm) it was “sufficient PDT effect is not obtained”.
